The target of one assay is HCV genotype 1b replicon. The assay is described as follows: HCV genotype 1b replicon assay (Renilla luciferase readout). In kind it is cell-based, hepatitis C virus. The following applies: for Genotype 1b: HCV genotype 1b replicon; for pEC50: Hepatitis C virus, read-out: Genotype 1b. The method in brief: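 Reported as pEC50 derived from a 4-parameter fit of Renilla luciferase activity against concentration. Replicon cells (APC144, Huh7 background) were exposed to compound for 48 h in G418-free medium with final 0.5% DMSO, after seeding at 10,000 cells/well and 4 h adherence.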

The next assay deals with HCV genotype 1a replicon. Put plainly: HCV genotype 1a replicon assay (NS3 protease activity readout). The assay is classed as cell-based, hepatitis C virus. The following applies: for Genotype 1a: HCV genotype 1a replicon; for pEC50: Hepatitis C virus, read-out: Genotype 1a, HCV genotype 1a replicon. Put shortly: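 EC50 values came from a 4-parameter robust fit of fluorescence (ex 340, em 509 nm) produced by NS3-specific protease in lysates, assayed with 15 μM FRET substrate for 20 min at 37° C, after 48 or 72 hours of compound exposure (0.5% DMSO) of Huh7.5-derived APC89 genotype 1a replicon cells.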

pEC50: −log10 of the molar value.

Consider `COC(=O)NC(C(=O)N1CC(OC)CC1c1nc(-c2ccc(-c3cc(F)c(NC(=O)c4ccc(N5CCN(C(=O)C(C)(C)CO)CC5C)nc4)cc3OC(F)(F)F)cc2)c[nH]1)C(C)(C)O` (stereo not shown) [Example 16-14], for which the “Genotype 1b” value at HCV genotype 1b replicon is on record as “D (D represents pEC50>10 (EC50<0.1 nM))”. For the same molecule, in the assay with HCV genotype 1a replicon, the “Genotype 1a” value was “D (D represents pEC50>10 (EC50<0.1 nM))”.

Regarding `COC(=O)N[C@H](C(=O)N1[C@@H](C)CC[C@H]1c1nc(-c2ccc(-c3cc(Cl)c(NC(=O)c4ccc(N5CCN(C(=O)C(C)(C)C)C[C@H]5C)nc4)cc3OC(F)(F)F)cc2)c[nH]1)C(C)C` [Example 17-3], the “Genotype 1b” value on HCV genotype 1b replicon is “D (D represents pEC50>10 (EC50<0.1 nM))”. Besides, the “Genotype 1a” value in the assay on HCV genotype 1a replicon was “D (D represents pEC50>10 (EC50<0.1 nM))”.

Regarding `COC(=O)N[C@H](C(=O)N1C[C@@H](C)C[C@H]1c1nc(-c2ccc(-c3ccc(C(=O)Nc4ccc(N5CCN(C(=O)[C@]6(C)CCCN6C(=O)OC(C)C)C[C@H]5C)nc4)cc3OC(F)(F)F)cc2)c[nH]1)C(C)C` [Example 4-5], on HCV genotype 1b replicon, the “Genotype 1b” value is on record as “D (D represents pEC50>10 (EC50<0.1 nM))”. Besides, in the assay on HCV genotype 1a replicon, the “Genotype 1a” value is on record as “D (D represents pEC50>10 (EC50<0.1 nM))”.

For `COC[C@H]1C[C@@H](c2nc(-c3ccc(-c4cc(Cl)c(C(=O)Nc5ccc(N6CCN(C(=O)C(C)(C)C)C[C@H]6C)nc5)cc4OC(F)(F)F)cc3)c[nH]2)N(C(=O)[C@@H](NC(=O)OC)C2CCOCC2)C1` [24-6], the “Genotype 1b” value on HCV genotype 1b replicon is listed as “D (D represents pEC50>10 (EC50<0.1 nM))”. In addition, the “Genotype 1a” value with HCV genotype 1a replicon is listed as “D (D represents pEC50>10 (EC50<0.1 nM))”.

With `COC(=O)N[C@H](C(=O)N1C[C@@H](C)C[C@H]1c1nc(-c2ccc(-c3cc(Cl)c(NC(=O)c4ccc(N5C[C@H](C)N(C(=O)c6c[nH]cn6)C[C@H]5C)nc4)cc3OC(F)(F)F)cc2)c[nH]1)C(C)C` [Example 1-19], the “Genotype 1b” value at HCV genotype 1b replicon is reported as “D (D represents pEC50>10 (EC50<0.1 nM))”. Besides, the “Genotype 1a” value in the assay with HCV genotype 1a replicon is given as “D (D represents pEC50>10 (EC50<0.1 nM))”.

For the molecule `COC(=O)N[C@H](C(=O)N1C[C@@H](C)C[C@H]1c1nc(-c2ccc(-c3ccc(C(=O)Nc4ccc(N5CCN(C(=O)C(C)(C)CO)C[C@H]5C)nc4)cc3OC(F)(F)F)cc2)c(Cl)[nH]1)C1CCOCC1` [Example 22-8], the “Genotype 1b” value on HCV genotype 1b replicon is recorded as “D (D represents pEC50>10 (EC50<0.1 nM))”. Besides, the “Genotype 1a” value in the assay on HCV genotype 1a replicon is “D (D represents pEC50>10 (EC50<0.1 nM))”.

Consider `COC(=O)N[C@H](C(=O)N1C[C@@H](N(C)C)C[C@H]1c1nc(-c2ccc(-c3ccc(NC(=O)c4ccc(N5CCN(C(=O)[C@H]6CC6(C)C)C[C@H]5C)nc4)cc3)cc2)c[nH]1)C(C)C` [Example 2-3], for which, on HCV genotype 1b replicon, the “Genotype 1b” value was “D (D represents pEC50>10 (EC50<0.1 nM))”. Moreover, the “Genotype 1a” value in the assay on HCV genotype 1a replicon was “D (D represents pEC50>10 (EC50<0.1 nM))”.

As for `COC(=O)NC(C(=O)N1CC(C)CC1c1nc(-c2ccc(-c3ccc(NC(=O)c4ccc(N5CCN(C(=O)C(C)(C)CO)CC5C)nc4)cc3OC(F)(F)F)cc2)c[nH]1)C(C)C` (stereo not shown) [Example 13-29], the “Genotype 1b” value on HCV genotype 1b replicon is reported as “D (D represents pEC50>10 (EC50<0.1 nM))”. In addition, in the assay on HCV genotype 1a replicon, the “Genotype 1a” value is given as “D (D represents pEC50>10 (EC50<0.1 nM))”.

With `COC(=O)N[C@H](C(=O)N1C[C@@H](C)C[C@H]1c1nc(-c2ccc(-c3cc(Cl)c(C(=O)Nc4ccc(N5CCN(C(=O)C(C)(C)CO)C[C@H]5C)nc4)cc3OC(F)(F)F)cc2)c(Cl)[nH]1)C1CCOCC1` [Example 22-9], the pEC50 in the assay with HCV genotype 1b replicon and in the assay with HCV genotype 1a replicon was greater than 10.00 throughout.

For the molecule `COC(=O)N[C@H](C(=O)N1C[C@@H](C)C[C@H]1c1nc(-c2ccc(-c3cc(Cl)c(NC(=O)c4ccc(N5CCN(C(=O)C(C)(C)CO)C[C@H]5C)nc4)cc3OC(F)(F)F)cc2)c[nH]1)[C@H](C)OC` [Example 13-18], the pEC50 in the assay on HCV genotype 1b replicon and in the assay with HCV genotype 1a replicon was greater than 10.00 in each case.

As for `COC(=O)N[C@H](C(=O)N1C[C@@H](C)C[C@H]1c1nc(-c2ccc(-c3cc(Cl)c(C(=O)Nc4ccc(N5CCN(C(=O)C(C)(C)C)C[C@H]5C)nc4)cc3OC(F)(F)F)cc2)c(Cl)[nH]1)C1CCOCC1` [Example 22-7], the pEC50 in the assay with HCV genotype 1b replicon and in the assay with HCV genotype 1a replicon was greater than 10.00 each time.

Turning to `COC(=O)N[C@H](C(=O)N1C[C@@H](C)C[C@H]1c1nc(-c2ccc(-c3cc(Cl)c(NC(=O)c4ccc(N5CCN(C(=O)C(C)(C)CO)C[C@H]5C)nc4)cc3OC(F)(F)F)cc2)c[nH]1)C(C)C` [Example 12-8], the pEC50 in the assay with HCV genotype 1b replicon and in the assay with HCV genotype 1a replicon was greater than 10.00 each time.

On to `COCC(C)(C)C(=O)N1CCN(c2ccc(C(=O)Nc3cc(OC(F)(F)F)c(-c4ccc(-c5c[nH]c([C@@H]6C[C@H](C)CN6C(=O)[C@@H](NC(=O)OC)C(C)C)n5)cc4)cc3Cl)cn2)[C@H](C)C1` [Example 12-32], for which the pEC50 with HCV genotype 1b replicon and in the assay with HCV genotype 1a replicon was greater than 10.00 throughout.

Regarding `COC(=O)N[C@H](C(=O)N1C[C@@H](C)C[C@H]1c1nc(-c2ccc(-c3ccc(C(=O)Nc4ccc(N5CCN(C(=O)[C@]6(C)CCCN6C(=O)[C@H](NC(=O)OC)C(C)C)C[C@H]5C)nc4)cc3OC(F)(F)F)cc2)c[nH]1)C(C)C` [Example 4-7], the “Genotype 1b” value at HCV genotype 1b replicon was “D (D represents pEC50>10 (EC50<0.1 nM))”. Further, the “Genotype 1a” value in the assay with HCV genotype 1a replicon was “D (D represents pEC50>10 (EC50<0.1 nM))”.

`COC(=O)N[C@H](C(=O)N1C[C@@H](OC)C[C@H]1c1nc(-c2ccc(-c3cc(Cl)c(NC(=O)c4ccc(N5C[C@H](C)N(C(=O)[C@H]6CC6(C)C)C[C@H]5C)nc4)cc3OC(F)(F)F)cc2)c[nH]1)C1CCOCC1` [Example 28-6]: the “Genotype 1b” value at HCV genotype 1b replicon is “D (D represents pEC50>10 (EC50<0.1 nM))”. The “Genotype 1a” value in the assay on HCV genotype 1a replicon is “D (D represents pEC50>10 (EC50<0.1 nM))”.

Turning to `COC(=O)N[C@H](C(=O)N1C[C@@H](C)C[C@H]1c1nc(-c2ccc(-c3cc(Cl)c(NC(=O)c4ccc(N5CCN(C(=O)C(C)(C)CO)C[C@H]5C)nc4)cc3OC(F)(F)F)cc2)c(CO)[nH]1)C1CCOCC1` [Example 20-3], the “Genotype 1b” value on HCV genotype 1b replicon is given as “D (D represents pEC50>10 (EC50<0.1 nM))”. Also, in the assay with HCV genotype 1a replicon, the “Genotype 1a” value is listed as “D (D represents pEC50>10 (EC50<0.1 nM))”.

For the molecule `COC(=O)N[C@H](C(=O)N1C[C@@H](C)C[C@H]1c1nc(-c2ccc(-c3ccc(C(=O)Nc4ccc(N5CCN(C(=O)C(C)(C)C)C[C@H]5C)nc4)cc3OC(F)(F)F)cc2)c(F)[nH]1)C(C)C` [Example 4-42], on HCV genotype 1b replicon, the “Genotype 1b” value is listed as “D (D represents pEC50>10 (EC50<0.1 nM))”. Also, the “Genotype 1a” value in the assay with HCV genotype 1a replicon is reported as “D (D represents pEC50>10 (EC50<0.1 nM))”.

Regarding `COC(=O)N[C@H](C(=O)N1C[C@@H](C#N)C[C@H]1c1nc(-c2ccc(-c3cc(Cl)c(NC(=O)c4ccc(N5CCN(C(=O)C(C)(C)CO)C[C@H]5C)nc4)cc3OC(F)(F)F)cc2)c[nH]1)C(C)C` [Example 15-12], the pEC50 in the assay on HCV genotype 1b replicon and in the assay on HCV genotype 1a replicon was greater than 10.00 each time.

With `COC(=O)N[C@H](C(=O)N1C[C@@H](N(C)C)C[C@H]1c1nc(-c2ccc(-c3ccc(NC(=O)c4ccc(N5CCN(C(=O)C6CC6)C[C@H]5C)nc4)cc3)cc2)c[nH]1)C(C)C` [Example 6, ((S)-1-{(2S,4S)-2-[4-(4′-{[6-((R)-4-Cyclopropanecarbonyl-2-methyl-piperazin-1-yl)-pyridine-3-carbonyl]-amino}-biphenyl-4-yl)-1H-imidazol-2-yl]-4-dimethylamino-pyrrolidine-1-carbonyl}-2-methyl-propyl)-carbamic acid methyl ester], the pEC50 in the assay with HCV genotype 1b replicon was greater than 10.00; in the assay with HCV genotype 1a replicon it was 9.00 to 10.00.

On to `COC(=O)N[C@H](C(=O)N1C[C@@H](O)C[C@H]1c1nc(-c2ccc(-c3ccc(NC(=O)c4ccc(N5CCN(C(=O)[C@]6(C)CCCN6C(=O)OC)C[C@H]5C)nc4)cc3)cc2)c[nH]1)C(C)C` [Example 5], for which the pEC50 in the assay with HCV genotype 1b replicon was greater than 10.00; with HCV genotype 1a replicon, 9.00 to 10.00.

These data come from US9212168B2 (priority 2011, dated 2015).
